According to patent publication US8628752B2, “Methods of identifying HSP90 inhibitors with less ocular toxicity” (Synta Pharmaceuticals Corp., priority 2011, dated 2014):
Where “and” joins values, the source holds several entries; their conditions need not be identical. Equal entries are not always repeated. Entries after “also recorded” stand apart in the source; their conditions may differ. Where two headings read alike, the source gives them in different places.

How the values were obtained:
HER2 in BT-474 cells = assay: HER2 degradation assay (anti-HER2 FITC flow cytometry); format: cell-based; conditions: 24 h treatment
Protocol: HER2 positive cells were determined using anti-HER2 conjugated FITC (BD, 540553) according to manufacturer's instruction (BD Biosciences). 0.2×10^6 BT-474 cells were plated in 12-well culture plates in Dulbecco's Modified Eagle's Medium containing 10% fetal bovine serum and 1.5 g/L sodium bicarbonate. Cells were treated with the indicated compounds over a 10-1000 nM concentration range for 24 h. Cells were collected and stained with a FITC-conjugated anti-HER2 antibody for 30 min at room temperature. HER2-positive cells (fluorescence intensity) were determined by flow cytometry (excitation at 495 nm and emission at 529 nm) using a Becton Dickinson LSRII equipped with CellQuest Pro software. […]

photoreceptors [1] = conditions: rat, in vivo, iv; for Incidences (#affected/total): male, Sprague-Dawley, 2 days
[2] = for Elimination from the retina (in words) / Retina/plasma (R/P) ratio (in words): rats; for Retina/plasma (R/P) ratio (in words): 6 h post-dose
in vivo [3] = conditions: male, Sprague-Dawley, rat, iv; for Kp at 0.5 h / Kp at 6 h: in vivo
retina [4] = assay: Ganetespib 3-month toxicology study, ocular histopathology; format: in vivo; conditions: SD rats (M + F), max. dose 100 mg/kg, 1 hour i.v. infusion, Days 1 & 15 of four 21-day cycles
retina [5] = assay: as above; format: in vivo, cynomolgus monkeys; conditions: Monkeys (M + F), max. dose 7 mg/kg, 1 hour i.v. infusion, Days 1 & 15 of four 21-day cycles
[6] = Ocular adverse events in clinical studies with ganetespib; format: in vivo, humans
photoreceptors [7] = assay: Photoreceptor degeneration/apoptosis in rat eyes (H&E, TUNEL) after i.v. dosing; conditions: for Ocular toxicity / photoreceptor injury in rats (in words): short-term studies; for Ocular toxicity / photoreceptor injury in rats (in words) / Photoreceptor degeneration (in words): rats
[8] = phase I trials, clinical reports, cited from earlier work
in vivo [9] = conditions: male, Sprague-Dawley, rat, iv
retina [10] = conditions: repeated doses; cited from earlier work
[11] = SD rats, all testing doses of the compound, i.v.
[12] = male, Sprague-Dawley, rat, in vivo, iv, 2 days
[13] = male, Sprague-Dawley, rat, in vivo, iv
[14] = male, Sprague-Dawley, rat, in vivo, iv, 0.5 h
[15] = male, Sprague-Dawley, rat, in vivo, iv, 6 h
[16] = SD rats, i.v., Day 2, 0.5 h, mg/kg: AUY922 10, 17-DMAG 20, Compound 1 50, 17-AAG 80
[17] = SD rats, i.v., Day 2, 6 h, mg/kg: AUY922 10, 17-DMAG 20, Compound 1 50, 17-AAG 80
[18] = SD rats, i.v., between 0.5 and 6 h post-dose
[19] = SD rats, 8, 20, 60, 100/80 mg/kg/d x2, i.v.

## CCNC(=O)c1noc(-c2cc(C(C)C)c(O)cc2O)c1-c1ccc(CN2CCOCC2)cc1 [AUY-922]
HER2 in BT-474 cells
  IC50: < 30 nM
HER2 in BT-474 cells; Homo sapiens, BT-474, 24 h
  IC50: 30 nM
Photoreceptors [1]; 3 mg/kg/day
  Incidences (#affected/total): 0/3
Photoreceptors [1]; 60 mg/kg/day
  Incidences (#affected/total): 3/3
Photoreceptors [1]
  Ocular toxicity / photoreceptor injury in rats (in words): most severe ocular effects
  TUNEL: +-++
SD rats, 3-60 mg/kg i.v., in 2-3 days post-dose
  Toxicity: mortality: No mortality
[11]
  Mortality (in-house study): 0/12
[12]
  Other findings (in-house study): tail edema
rat, in vivo, iv
  Other findings (in-house study): ↓ Body weight gain)
[2]; [13]
  Retina % remain at 6 h of drug present at 0.5 h: (53.5) %
  Retina %↓ 0.5-6 h (drug eliminated from retina): 46.5%
[2]; [14]
  Plasma concentration: 1120 nM
  Retina concentration: 4.75 µM
[2]; [15]
  Plasma concentration: 15.4 nM
  Retina concentration: 2.54 µM
In vivo [3]
  Kp at 0.5 h: 4.24
  Kp at 6 h: 165

## CC(C)c1cc(-c2n[nH]c(=O)n2-c2ccc3c(ccn3C)c2)c(O)cc1O [Ganetespib, 3-(2,4-dihydroxy-5-isopropyl-phenyl)-4-(1-methyl-indol-5-yl)-5-hydroxy-[1,2,4]triazole]
HER2 in BT-474 cells; Homo sapiens, BT-474, 24 h
  IC50: 30 nM
Retina [4]
  Ocular histopathology evaluation: No changes
Retina [5]
  Ocular histopathology evaluation: No changes
[6]; clinical studies with ganetespib
  Severity of ocular toxicities in clinical studies (in words): absence of severe common ocular toxicities
[6]; n = 390, number (%)
  Chromatopsia, all adverse events, Grade 1: 1 (<1%)
  Chromatopsia, related adverse events, Grade 1: 1 (<1%)
  Difficulty with night vision, all adverse events, Grade 1: 1 (<1%)
  Vision blurred, all adverse events, Grade 1: 11 (3%)
  Vision blurred, all adverse events, Grade 2: 2 (<1%)
  Vision blurred, related adverse events, Grade 1: 4 (1%)
  Visual acuity reduced, all adverse events, Grade 1: 2 (<1%)
  Visual acuity reduced, related adverse events, Grade 1: 1 (<1%)
  Visual impairment, all adverse events, Grade 1: 5 (1%)
  Visual impairment, related adverse events, Grade 1: 2 (<1%)
[2]; SD rats, 20 mg/kg i.v., Cmax & AUCt > human dose
  Toxicity: exposure compared with human dose: Cmax & AUCt >
[2]
  Elimination from the retina (in words): more rapidly eliminated from the retina
  Retina/plasma (R/P) ratio (in words): lower R/P ratios
Photoreceptors [7]; SD rats, 20 mg/kg i.v.
  Photoreceptor degeneration/apoptosis: (−) ((−) ≦20 cells/section)
Photoreceptors [7]; i.v.
  Ocular toxicity / photoreceptor injury in rats (in words): absence of ocular effects; also recorded: did not induce ocular toxicity

## C=CCNC1=C2C[C@@H](C)C[C@H](OC)[C@H](O)[C@@H](C)/C=C(\C)[C@H](OC(N)=O)[C@@H](OC)/C=C\C=C(/C)C(=O)NC(=CC1=O)C2=O [Compound 17-AAG]
HER2 in BT-474 cells
  IC50: 100 to 150 nM
SD rats, 100 mg/kg in 5 min
  Mortality (in-house study): 1/3; 100 mg/kg in 5 min,
SD rats, 120 mg/kg in 5 min
  Mortality (in-house study): 1/1: 120 mg/kg in 5 min.
SD rats, i.v.
  Toxicity: Mortality (dose): 100 mg/kg
[2]; [16]
  CSF concentration: 0.434 µM
  Plasma concentration: 26500 nM
  R/P ratio (retina/plasma): 1.70
  Retina concentration: 45.1 µM
[2]; [17]
  CSF concentration: 0.00433 µM
  Plasma concentration: 262 nM
  R/P ratio (retina/plasma): 9.58
  Retina concentration: 2.51 µM
[2]; [18]
  Retina % remain at 6 h of drug present at 0.5 h: (5.6) %
  Retina %↓ 0.5-6 h (drug eliminated from retina): 94% and 94.4%
[2]
  Elimination from the retina (in words): more rapidly eliminated from the retina
  Retina/plasma (R/P) ratio (in words): lower R/P ratios; also recorded: low R/P ratio
[8]
  Visual adverse effects in clinical trials / clinical subjects: absence of clinically-reported visual changes
Photoreceptors [7]; SD rats, 8, 20, 60 mg/kg i.v.
  Photoreceptor degeneration/apoptosis: (−) ((−) ≦20 cells/section)
Photoreceptors [7]; [19]
  Incidences (#affected/total): 0/10
  Severity (TUNEL + area & density): (−) ((−) ≦ 20 cells/section)
Photoreceptors [7]; SD rats, 80 (100) mg/kg i.v.
  Photoreceptor degeneration/apoptosis: (−) ((−) ≦20 cells/section)
Photoreceptors [7]; SD rats, i.v., mg/kg: AUY922 10, 17-DMAG 20, Compound 1 50, 17-AAG 80
  TUNEL: (−) ((−) ≦ 20 cells/section)
Photoreceptors [7]; i.v.
  Ocular toxicity / photoreceptor injury in rats (in words): Mild or no ocular toxicity; also recorded: absence of ocular effects; also recorded: did not produce detectable photoreceptor injury; also recorded: did not induce ocular toxicity in rats

## CO[C@H]1/C=C\C=C(/C)C(=O)NC2=CC(=O)C(NCCN(C)C)=C(C[C@@H](C)C[C@H](OC)[C@H](O)[C@@H](C)/C=C(\C)[C@@H]1OC(N)=O)C2=O [Compound 17-DMAG]
HER2 in BT-474 cells; Homo sapiens
  IC50: 60 nM
SD rats, 25 mg/kg/d x3, 72 hrs
  Mortality (in-house study): 3/3 @ 25
SD rats, i.v., x 3 days
  Toxicity: Mortality (dose): 25 mg/kg/dx
[2]; [16]
  CSF concentration: 0.0799 µM
  Plasma concentration: 4710 nM
  Retina concentration: 32.0 µM
[2]; [17]
  CSF concentration: 0.00376 µM
  Plasma concentration: 317 nM
  Retina concentration: 16.2 µM
[2]; [18]
  Retina %↓ 0.5-6 h (drug eliminated from retina): 49.4%
[2]
  Elimination from the retina (in words): longer retention time; also recorded: slow elimination rate
  Retina/plasma (R/P) ratio (in words): high retina/plasma (R/P) ratio
[8]; listed as alvespimycin
  Visual adverse effects in clinical trials / clinical subjects: Visual symptoms, including blurred vision
In vivo [3]
  Kp at 0.5 h: 6.79
  Kp at 6 h: 51.1
Photoreceptors [7]; SD rats, 10 mg/kg/d x2, i.v.
  Incidences (#affected/total): 3/3
Photoreceptors [7]; SD rats, 20, 25 mg/kg/d x2, i.v.
  Incidences (#affected/total): 6/6
Photoreceptors [7]; i.v.
  Ocular toxicity / photoreceptor injury in rats (in words): marked photoreceptor cell death; also recorded: produced ocular toxicity

## CC(C)c1cc(-c2nnc(S)n2-c2ccc3c(ccn3C)c2)c(O)cc1O [Compound 1, 4-isopropyl-6-(5-mercapto-4-(1-methyl-1H-indol-5-yl)-4H-1,2,4-triazol-3-yl)benzene-1,3-diol]
HER2 in BT-474 cells; Homo sapiens, BT-474, 24 h
  IC50: 60 nM
[12]
  Mortality (in-house study): 0/15
rat, in vivo, 100 mg/kg
  Other findings (in-house study): (ECG change
[2]; [18]
  Retina %↓ 0.5-6 h (drug eliminated from retina): 78.5%
[2]; SD rats, i.v., between 0.5 and 6 h post-dose, listed as compound 1
  Retina %↓ 0.5-6 h (drug eliminated from retina): 79%
In vivo [9]
  MTD: 100 mg/kg
In vivo [3]; cerebrospinal fluid
  concentration at 0.5 h: 19.4 nM
In vivo [3]; plasma
  concentration at 0.5 h: 19500 nM
  concentration at 6 h: 104 nM
In vivo [3]; retina
  concentration at 0.5 h: 10400 nM
  concentration at 6 h: 2240 nM
Photoreceptors [7]; SD rats, 10 mg/kg/d x2, i.v.
  Incidences (#affected/total): 0/3
  Severity (TUNEL + area & density): (−) ((−) ≦ 20 cells/section)
Photoreceptors [7]; SD rats, 20 mg/kg/d x2, i.v.
  Incidences (#affected/total): 0/3
  Severity (TUNEL + area & density): (−) ((−) ≦ 20 cells/section)
Photoreceptors [7]; SD rats, 30 mg/kg/d x2, i.v.
  Incidences (#affected/total): 0/3
  Severity (TUNEL + area & density): (−) (1/3±, 22 ((−) ≦ 20 cells/section)
Photoreceptors [7]; SD rats, 50 mg/kg i.v.
  Photoreceptor degeneration/apoptosis: (±)
Photoreceptors [7]; SD rats, 50 mg/kg/d x2, i.v.
  Incidences (#affected/total): 3/3
  Severity (TUNEL + area & density): (±) ((±) 21-30 cells/section)
Photoreceptors [7]; SD rats, 100 mg/kg/d x2, i.v.
  Incidences (#affected/total): 3/3
Photoreceptors [7]; SD rats, 10, 20, 30 mg/kg i.v.
  Photoreceptor degeneration/apoptosis: (−) ((−) ≦20 cells/section)
Photoreceptors [7]; doses active in animal tumor models
  Photoreceptor degeneration (in words): Photoreceptor degeneration was not observed
Photoreceptors [7]; higher dose(s)
  Photoreceptor degeneration (in words): only minimal degeneration; also recorded: only minimal-mild changes
Photoreceptors [7]; i.v.
  Ocular toxicity / photoreceptor injury in rats (in words): Mild or no ocular toxicity

## CC(C)c1cc(C(=O)N2Cc3ccc(CN4CCN(C)CC4)cc3C2)c(O)cc1O [AT-13387]
Photoreceptors [1]; 3 mg/kg/day
  Incidences (#affected/total): 6/6
Photoreceptors [1]; 30 mg/kg/day
  Incidences (#affected/total): 0/3
Photoreceptors [1]; 60 mg/kg/day
  Incidences (#affected/total): 2/3
[11]
  Mortality (in-house study): 0/9
[12]
  Other findings (in-house study): ↓ Body weight gain

## CC1(C)CC(=O)c2c(C(F)(F)F)nn(-c3ccc(C(N)=O)c(N[C@H]4CC[C@H](OC(=O)CN)CC4)c3)c2C1 [PF-04929113]
Retina [10]
  Retinal injury in dogs: photoreceptor degeneration and/or cell death
